# Reference: US20140221206A1, “HERBICIDAL COMPOSITION COMPRISING POLYMERIC MICROPARTICLES CONTAINING A HERBICIDE” (SYNGENTA LIMITED, priority 2011, published 2014)
# Test system: AVEFA, LOLMU, ALOMY, SETVI
# Experiment: Assay 3—Glasshouse assay for pinoxaden antagonism (grass species)
# Conditions: used with Axial (pinoxaden) + Adigor adjuvant
# Experimental: A suitable glasshouse assay/test, to determine whether or not the “first herbicide”, when in a salt-free form and when not contained within polymeric microparticles, antagonises the herbicidal activity of pinoxaden, is as follows.
# The troughs are watered appropriately and are not supplied with additional nutrients throughout the course of the test. […] The pinoxaden is typically used in a commercial formulation applied with recommended tank-mix adjuvants.
# Crop injury (e.g. to wheat) is recorded at both 7 and 14-16 days after application; weed efficacy is only recorded at 14-16 days after application. A visual, 0-100% assessment scale is used, where 0%=no visible effects and 100%=complete plant destruction.
# For example, dicamba can be applied at ca. 240 g/ha (or alternatively at from 100 to 140, e.g. ca. 120, g/ha), measured as the free acid; MCPA and/or 2,4-D can be applied at ca. 500 g/ha, measured as the free acid.
# Alternatively, application rates may be identified from journal, book and/or patent publications for the specific active ingredient under test.
# Antagonism of pinoxaden may then be determined by the application of Colby's formula:
# (Observed 1+Observed 2)−((Observed 1×Observed 2)/100),
# Where observed values are smaller than the calculated expected value, antagonism is deemed to have occurred.
row,SMILES,antagonism of pinoxaden grass-herbicidal activity (in words)
1,"COc1c(Cl)ccc(Cl)c1C(=O)O [dicamba acid, 3,6-dichloro-2-methoxybenzoic acid]","some reductions in pinoxaden herbicidal activity on the grassy weed species AVEFA, ALOMY and LOLMU"
2,"O=C(O)COc1ccc(Cl)cc1Cl [2,4-D acid, (2,4-dichlorophenoxy)acetic acid]","some reductions in pinoxaden herbicidal activity on the grassy weed species AVEFA, ALOMY, SETVI and LOLMU"
3,"Cc1cc(Cl)ccc1OCC(=O)O [MCPA acid, (4-chloro-2-methylphenoxy)acetic acid]","some reductions in pinoxaden herbicidal activity on the grassy weed species AVEFA, ALOMY and LOLMU"
